Read-outs that look alike come from different tables or passages of the source.
What was measured:
[1] = system: normal monkey kidney epithelial cell line CV-1; experiment: Colony formation assay, normal monkey kidney epithelial cells CV-1; details: Primates, Epithelial cell;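 further: colonies visualized by crystal violet staining, incubation at 37 °C, IC50 relative to untreated wells given culture medium alone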
Description: (§2) Human colon carcinoma cell line CX-1 or normal monkey kidney epithelial cell line CV-1 was chosen as representatives of cancer cells and normal cells, respectively. […] CX-1 cells (2,000 cells/well) and CV-1 cells (1,000 cells/well) were plated in 24-well plastic culture plates. […] The control received culture media only. Cells were treated with compounds of General Formulas (1) to (6) at 37° C. for 24 hours. After rinsing with fresh culture medium three times, the cells were further incubated at 37° C. for 7 to 10 days. Cell colonies were fixed and stained with 2% crystal violet in 70% ethanol for 10 minutes and rinsed in water. […] The selectivity is defined as the ratio of IC50 for CV-1 and IC50 for CX-1.

[2] = system: normal nude mice; experiment: Toxicity to normal nude mice
[3] = system: human colon carcinoma cell line CX-1; experiment: Colony formation assay, human colon carcinoma CX-1; type: cell-based; details: Table III; for IC50: Homo sapiens, Colon carcinoma cell, read-out: CX-1 (IC50); for IC50 / CX-1 (IC50): 24 h treatment, colony count after 7 to 10 days; for Selectivity (ratio of IC50 for CV-1 and IC50 for CX-1): CV-1/CX-1
Description: as §2

[4] = system: human melanoma LOX; experiment: Survival of nude mice implanted with human melanoma LOX; type: in vivo, human melanoma in male athymic Swiss nu/nu mouse; details: Mus musculus, ip, 24 h, read-out: T/C (survival)
Description: LOX, a human melanoma cell line, grown subcutaneously in nude mice was excised, trypsinized to yield a single cell suspension using a metal grid with a […]. Red blood cells were lysed by incubation with 0.17 molar ammonium chloride at 4° C. for 20 minutes. Five million viable trypan blue negative cells made up in 0.1 ml of Dulbecco modified Eagles' medium (DME) were injected into the peritoneal cavity of a male athymic Swiss nu/nu mouse. The control group and each treatment group consisted of 5 to 10 mice. Treatment was commenced the following day by intraperitoneal injection.
Ten control mice received 0.25 ml of 2% dextrose on those days the treated groups were injected with the compounds of this invention. The compounds of the General Formulas. (1) to (6) used in this invention which were tested are listed in Table VIII below and the results obtained are shown in Table VIII and FIG. 1-6 of the accompanying drawings. T/C is the ratio, expressed as a percentage of the mean survival age of the treated group to the mean survival age of the untreated control group.

[5] = system: human pancreatic carcinoma CRL 1420 cell line; experiment: Colony formation assay, human pancreatic carcinoma CRL 1420; type: cell-based; details: Table VII; for CRL-1420 (IC50) / IC50: 24 h treatment; for Selectivity (CV-1 IC50 / CRL-1420 IC50): CV-1/CRL-1420; for IC50: Homo sapiens, 24 h
Excerpt: (§1) The control received culture media only.
The Selectivity values, CRL 1420 values and CV-1 values for compounds of the General Formulas (1) to (6) used in the present invention are shown in Table VII below.

[6] = system: human colon carcinoma CX-1; experiment: Anti-human colon carcinoma CX-1 activity in nude mice, tumor inhibition; type: in vivo, human colon carcinoma in Swiss nu/nu mice; details: Mus musculus, ip, 24 h
Excerpt: Human colon carcinoma cell line CX-1 has been chosen by the National Cancer Institute as a mode for cancer drug screening (NCI Protocol 3C2H2). It was established in culture from the surgical explant of the primary colon adenocarcinoma of a person with no previous chemotherapy. The cultured CX-1 cells, upon subcutaneous injection, can grow readily in nude mice as a moderately- to well-differentiated human colon carcinoma. CEA is expressed as expected for differentiated colon carcinoma cells. Abundant keratin, consistent with epithelial origin, is present. Increased uptake and prolonged retention of delocalized lipophilic cations are observed.
Swiss nu/nu mice obtained from Taconic Farm were housed in a pathogen-free environment. Tumors subcutaneously passaged in nude mice were excised under sterile conditions and converted to a single cell suspension using a metal grid with a 0.4 mm mesh. Red blood cells were lysed by incubation with 0.17M ammonium chloride at 4° C. for 20 minutes. Cells were scored for viability with trypan blue. Viable CX-1 cells (2.5 million) made up in 0.1 ml of cell culture medium were injected subcutaneously into each nude mouse. The mice were randomly allocated into a control group (five mice) and a treatment group (five mice per group). The drug treatment was commenced the next day. Doses and schedules were developed empirically and were based mainly on information on LD50 and LD10 obtained from preliminary toxicity studies. The control group received an equivalent volume of hydroxylpropyl-β-cyclodextrin-5% glucose solution.
The pharmaceutical compositions tested comprised solutions in 5% glucose subjected to sonication at concentrations of 1 mg/ml. Those compounds which were not completely dissolved by this procedure were dissolved in hydroxypropyl-β-cyclodextrin using the following method. Hydroxypropyl-β-cyclodextrin (45 g) was mixed with 100 ml of sterilized, double distilled water and stirred for four hours. Each of the compounds to be tested (20 mg) was mixed with 10 ml of hydroxypropyl-β-cyclodextrin solution and sonicated for 60 minutes in the dark. This solution was then diluted in 5% glucose to yield a final compound concentration of 0.5 mg/ml, and further sonicated for 60 minutes in the dark to assure that the compound was completely dissolved.
When the growth of tumors in the control group reached the exponential phase and the size of the tumor was palpable (usually 20 to 30 days after tumor implantation), the experiments were terminated. Tumors in each mouse were excised and weighed using an analytical balance. Total tumor weight in each group from five mice was calculated. Per cent tumor inhibition between the treated group and the control group was then calculated for each group.

[7] = system: human melanoma LOX cell line; experiment: Colony formation assay, human melanoma LOX; type: cell-based; details: Table V; for IC50: Homo sapiens, LOX, 24 h, read-out: LOX (IC50); for Selectivity (CV-1 IC50 / LOX IC50): CV-1/LOX
Excerpt: as §1

[8] = system: human bladder carcinoma EJ cell line; experiment: Colony formation assay, human bladder carcinoma EJ; type: cell-based; details: Table IV; for IC50: Homo sapiens, EJ, 24 h, read-out: EJ (IC50); for Selectivity (CV-1 IC50 / EJ IC50): CV-1/EJ
Excerpt: as §1

[9] = system: human breast carcinoma MCF-7 cell line; experiment: Colony formation assay, human breast carcinoma MCF-7; type: cell-based; details: Table VI; for IC50: Homo sapiens, MCF7, 24 h, 24 h treatment, read-out: MCF-7 (IC50); for Selectivity (CV-1 IC50 / MCF-7 IC50): CV-1/MCF-7
Excerpt: as §1
The Selectivity values, MCF-7 values and CV-1 values for compounds of the General Formulas (1) to (6) used in the present invention are shown in Table VI below.

[10] = read-out: CV-1 (IC50), Table III, 24 h treatment, colony count after 7 to 10 days
[11] = read-out: CV-1 (IC50), Table VII
[12] = i.p. on day 1, 4, 7, 11, 15, 18
[13] = read-out: CV-1 (IC50), Table IV
[14] = read-out: CV-1 (IC50), Table VI
[15] = i.p. on day 1, 7**, 9** (**10 mg/kg)

Structure (SMILES) | IC50 [1, 10] | IC50 [3] | Selectivity (ratio of IC50 for CV-1 and IC50 for CX-1) [3] | IC50 [1, 11] | Selectivity (CV-1 IC50 / CRL-1420 IC50) [5] | inhibition in vivo at 20 mg/kg [6, 12] | IC50 [1, 13] | Selectivity (CV-1 IC50 / EJ IC50) [8] | further results
CCN1/C(=C/C=C/c2sc3ccccc3[n+]2CC)Sc2ccccc21 [B, reference compound] | 0.6 µg/mL |  |  |  |  |  |  |  | toxicity to normal nude mice [2]: highly toxic to normal nude mice
CCN1/C(=C/C=C/c2sc3c4ccccc4ccc3[n+]2CC)Sc2c1ccc1ccccc21 [C, reference compound] | < 0.1 µg/mL | 0.05 µg/mL |  |  |  |  |  |  | toxicity to normal nude mice [2]: highly toxic to normal nude mice
CCn1c(=Cc2sc3c4ccccc4ccc3[n+]2CC)sc(=CC=C2Sc3ccc4ccccc4c3N2C)c1=O [Compound 32] | 20 µg/mL | 0.02 µg/mL | 1000 | 20 µg/mL | > 200 |  |  |  | response vs control in vivo at 40 mg/kg ([4]; 40 mg/kg, i.p. on day 1, 2, 3, 4, 5, 7, 8, 9, 10): 231%; CRL-1420 (IC50) [5]: < 0.1 µg/mL; inhibition in vivo at 20 mg/kg ([6]; i.p. on day 1, 2, 4, 6, 8): 40.5%
CCn1c(=Cc2sc3c4ccccc4ccc3[n+]2C)sc(=CC=C2Sc3ccc4ccccc4c3N2C)c1=O [Compound 44] | 20 µg/mL | 0.02 µg/mL | 1000 |  |  | 54.8% |  |  | 
CCN1C(=CC=c2sc(=Cc3sc4c5ccccc5ccc4[n+]3CC)n(C)c2=O)Sc2ccc3ccccc3c21 [Compound 45] | 20 µg/mL | 0.02 µg/mL | 1000 | 20 µg/mL | 286 | 56.8% | 20 µg/mL | 400 | IC50 ([1]; read-out: CV-1 (IC50), Table V): 20 µg/mL; IC50 [1, 14]: 20 µg/mL; IC50 ([7]; 24 h treatment): 0.07 µg/mL; Selectivity (CV-1 IC50 / LOX IC50) [7]: 286; response vs control in vivo at 20 mg/kg ([4]; i.p. on day 1, 2, 3, 6, 9, 13): 137%; IC50 ([8]; 24 h treatment): 0.05 µg/mL; IC50 [5]: 0.07 µg/mL; IC50 [9]: 0.06 µg/mL; Selectivity (CV-1 IC50 / MCF-7 IC50) [9]: 333
CCN1C(=CC=c2sc(=Cc3sc4c5ccccc5ccc4[n+]3C)n(C)c2=O)Sc2ccc3ccccc3c21 [Compound 46] | 20 µg/mL | 0.05 µg/mL | 400 | 20 µg/mL | 312 |  | 20 µg/mL | 244 | IC50 ([1]; read-out: CV-1 (IC50), Table V): 20 µg/mL; IC50 [1, 14]: 20 µg/mL; IC50 ([7]; 24 h treatment): 0.064 µg/mL; Selectivity (CV-1 IC50 / LOX IC50) [7]: 312; response vs control in vivo at 20 mg/kg ([4]; i.p. on day 1, 3, 6, 9, 13, 16): 222%; IC50 ([8]; 24 h treatment): 0.082 µg/mL; IC50 [5]: 0.064 µg/mL; IC50 [9]: 0.082 µg/mL; Selectivity (CV-1 IC50 / MCF-7 IC50) [9]: 244; inhibition in vivo at 20 mg/kg ([6]; i.p. on day 1, 5, 7, 9): 60.1%
CC[n+]1c(C=c2sc(=CC=C3Sc4ccc5ccccc5c4N3C)c(=O)n2C)sc2c3ccccc3ccc21 [Compound 47] | 20 µg/mL | 0.05 µg/mL | 400 | 20 µg/mL | 312 | 64.1% | 20 µg/mL | 244 | IC50 ([1]; read-out: CV-1 (IC50), Table V): 20 µg/mL; IC50 [1, 14]: 20 µg/mL; IC50 ([7]; 24 h treatment): 0.082 µg/mL; Selectivity (CV-1 IC50 / LOX IC50) [7]: 244; response vs control in vivo at 20 mg/kg ([4]; i.p. on day 1, 3, 6, 9, 13, 16): 156%; IC50 ([8]; 24 h treatment): 0.082 µg/mL; IC50 [5]: 0.064 µg/mL; IC50 [9]: 0.1 µg/mL; Selectivity (CV-1 IC50 / MCF-7 IC50) [9]: 200
CN1C(=CC=c2sc(=Cc3sc4c5ccccc5ccc4[n+]3C)n(C)c2=O)Sc2ccc3ccccc3c21 [Compound 48] | 20 µg/mL | 0.005 µg/mL | 4000 |  |  | 72.4% |  |  | 
CCN1C(=CC=c2sc(=Cc3sc4c5ccccc5ccc4[n+]3CC)n(CC)c2=O)Sc2ccc3ccccc3c21 [Compound 54] |  |  | 500 | 20 µg/mL | 400 |  | 20 µg/mL | 500 | CX-1 (IC50) [3]: 0.04 µg/mL; IC50 ([1]; read-out: CV-1 (IC50), Table V): 20 µg/mL; IC50 [1, 14]: 20 µg/mL; LOX (IC50) ([7]; 24 h treatment): 0.07 µg/mL; Selectivity (CV-1 IC50 / LOX IC50) [7]: 286; EJ (IC50) ([8]; 24 h treatment): 0.04 µg/mL; CRL-1420 (IC50) [5]: 0.05 µg/mL; IC50 [9]: 0.05 µg/mL; Selectivity (CV-1 IC50 / MCF-7 IC50) [9]: 400; inhibition in vivo at 5 mg/kg ([6]; 5 mg/kg, i.p. on day 1, 5, 9, 13): 42.6%
CCn1c(=Cc2sc3c4ccccc4ccc3[n+]2CC)sc(=CC=C2Sc3ccc4ccccc4c3N2C)c1=O [Compound 55] |  |  |  |  |  | 55.3% |  |  | 
CCn1c(=Cc2sc3c4ccccc4ccc3[n+]2CC)sc(=CC=C2Sc3ccc4ccccc4c3N2C)c1=O [Compound 56] |  |  | 200 |  | > 435 |  | 20 µg/mL | 222 | CX-1 (IC50) [3]: 0.1 µg/mL; IC50 ([8]; 24 h treatment): 0.09 µg/mL; CRL-1420 (IC50) [5]: < 0.046 µg/mL; inhibition in vivo at 20 mg/kg ([6]; i.p. on day 1, 5, 8, 11): 82.6%
CCN1CCSC1=CC=c1sc(=Cc2cc[n+](CC)c3ccccc23)n(CC)c1=O [Compound 146] |  |  |  |  |  |  |  |  | inhibition in vivo at 20 mg/kg [6, 15]: 59.3%
C=CCn1c(=Cc2cc[n+](CC)c3ccccc23)sc(=CC=C2C=Cc3ccccc3N2CC)c1=O [Compound 249] | 5 µg/mL | 0.05 µg/mL | 100 | 5 µg/mL | 111 |  |  |  | IC50 [5]: 0.045 µg/mL; inhibition in vivo at 20 mg/kg ([6]; i.p. on day 1, 5, 7, 9): 41.1%
C=CCn1c(=Cc2cc[n+](CC)c3ccccc23)sc(=CC=C2C=CN(CC)c3ccccc32)c1=O [Compound 304] |  |  |  |  |  |  |  |  | inhibition in vivo at 20 mg/kg [6, 15]: 65.9%
CCN1C(=CC=c2sc(=Cc3sc4c([n+]3CC)CCCC4)n(CC)c2=O)Oc2ccccc21 [Compound A, reference compound] | 2 µg/mL | 0.04 µg/mL |  |  |  |  |  |  | toxicity to normal nude mice [2]: less toxic to normal nude mice

From patent US5861424A, “Composition and method for treating cancer” (priority 1995, dated 1999)
